Tests used:
A549 [1] = test: Ratio of MGCD0103 IC50 to compound IC50 for human A549 cells; format: functional
[2] = AUClast in Sprague-Dawley rat at 25 mg/kg, po; conditions: plasma
MCF7 [3] = test: Ratio of MGCD0103 IC50 to compound IC50 for human MCF7 cells; format: functional
[4] = Oral bioavailability in Sprague-Dawley rat at 25 mg/kg; format: ADME, organism-based; conditions: in vivo
Histone deacetylase 1 = Histone deacetylase 1 (Homo sapiens, UniProt Q13547); test: Inhibition of HDAC1 (unknown origin)
[5] = Tmax in Sprague-Dawley rat at 25 mg/kg, po; format: ADME, organism-based; set-up: dose 25 mg/kg, route oral; conditions: in vivo
HCT-116 = test: cells; conditions: Homo sapiens, HCT-116, 72 h
MCF7 [6] = test: cells; conditions: Homo sapiens, MCF7, 72 h
Description: Cytotoxicity against human MCF7 cells after 72 hrs by MTT assay

[7] = AUC infinity in Sprague-Dawley rat at 25 mg/kg, po; format: ADME, organism-based; set-up: time infinity, dose 25 mg/kg, route oral; conditions: plasma
[8] = Terminal half life in Sprague-Dawley rat at 5 mg/kg, iv; format: ADME, organism-based; set-up: dose 5 mg/kg, route intravenous; conditions: in vivo, read-out: beta t1/2 (converted)
[9] = Terminal half life in Sprague-Dawley rat at 25 mg/kg, po; format: ADME, organism-based; set-up: dose 25 mg/kg, route oral; conditions: in vivo, read-out: beta t1/2 (converted)
A549 [10] = test: cells; conditions: Homo sapiens, A549, 72 h
Description: Cytotoxicity against human A549 cells after 72 hrs by MTT assay

Chain of Histone deacetylase 1 (Q13547 whole entry): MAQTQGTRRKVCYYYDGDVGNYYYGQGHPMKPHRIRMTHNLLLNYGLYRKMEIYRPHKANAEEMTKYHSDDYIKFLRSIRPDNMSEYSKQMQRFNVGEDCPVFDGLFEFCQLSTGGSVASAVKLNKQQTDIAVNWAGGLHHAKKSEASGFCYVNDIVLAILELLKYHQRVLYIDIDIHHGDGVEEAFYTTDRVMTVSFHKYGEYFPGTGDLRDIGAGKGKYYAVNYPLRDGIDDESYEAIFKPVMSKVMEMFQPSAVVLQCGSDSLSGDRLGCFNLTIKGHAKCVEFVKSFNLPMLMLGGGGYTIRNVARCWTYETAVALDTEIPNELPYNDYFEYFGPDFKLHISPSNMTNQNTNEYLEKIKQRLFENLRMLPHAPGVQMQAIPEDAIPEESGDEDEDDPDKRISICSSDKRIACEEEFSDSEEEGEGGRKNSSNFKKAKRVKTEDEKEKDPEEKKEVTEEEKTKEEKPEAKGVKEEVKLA

| SMILES | AUC(0-t) [2] [ng·h/mL] | bioavailability [4] [%] | IC50 (Histone deacetylase 1) [nM] | Tmax [5] [min] | IC50 (HCT-116) [nM] | IC50 (MCF7 [6]) [nM] | AUC(0-inf) [7] [ng·h/mL] | half-life [8] [h] | half-life [9] [h] | IC50 (A549 [10]) [nM] | Ratio IC50 (A549 [1]) | Ratio IC50 (MCF7 [3]) |
| --- | --- | --- | --- | --- | --- | --- | --- | --- | --- | --- | --- | --- |
| Nc1ccccc1NC(=O)c1ccc(CNc2nccc(-c3cnc4ccccn34)n2)cc1 | 71900 | 81 | 53 | 4.98 | 82 | 661 | 72300 | 1.73 | 4.58 | 110 | 11.6 | 7 |
| Nc1ccccc1NC(=O)c1ccc(CCNc2nccc(-c3cnc4ncccn34)n2)cc1 |  |  | 154 |  | 256 | 1720 |  |  |  | 724 |  |  |
| Cc1nc2ccc(Br)cn2c1-c1ccnc(NCc2ccc(C(=O)Nc3ccccc3N)cc2)n1 |  |  | 125 |  | 301 | 2360 |  |  |  | 501 |  |  |
| Cc1nc2ccccn2c1-c1ccnc(NCCc2ccc(C(=O)Nc3ccccc3N)cc2)n1 |  |  | 131 |  | 304 | 4120 |  |  |  | 851 |  |  |
| Cc1nc2ccccn2c1-c1ccnc(NCc2ccc(C(=O)Nc3ccc(F)cc3N)cc2)n1 |  |  | 135 |  | 244 | 2400 |  |  |  | 649 |  |  |

The remaining compounds from weak to strong by IC50 (Histone deacetylase 1), led by results:

| AUC(0-t) [2] [ng·h/mL] | bioavailability [4] [%] | IC50 (Histone deacetylase 1) [nM] | Tmax [5] [min] | IC50 (HCT-116) [nM] | IC50 (MCF7 [6]) [nM] | AUC(0-inf) [7] [ng·h/mL] | half-life [8] [h] | half-life [9] [h] | IC50 (A549 [10]) [nM] | SMILES | Ratio IC50 (A549 [1]) | Ratio IC50 (MCF7 [3]) |
| --- | --- | --- | --- | --- | --- | --- | --- | --- | --- | --- | --- | --- |
|  |  | 127 |  | 189 | 4110 |  |  |  | 857 | Cc1nc2ncccn2c1-c1ccnc(NCc2ccc(C(=O)Nc3ccccc3N)cc2)n1 |  |  |
|  |  | 110 |  | 214 | 2180 |  |  |  | 509 | Nc1ccccc1NC(=O)c1ccc(CNc2nccc(-c3cnc4cnccn34)n2)cc1 |  |  |
|  |  | 108 |  | 203 | 2090 |  |  |  | 439 | Cc1nc2ccccn2c1-c1ccnc(NCc2ccc(C(=O)Nc3ccccc3N)cc2)n1 |  |  |
|  |  | 97 |  | 264 | 3740 |  |  |  | 694 | Cc1nc2cnccn2c1-c1ccnc(NCc2ccc(C(=O)Nc3ccccc3N)cc2)n1 |  |  |
|  |  | 97 |  | 270 | 1000 |  |  |  | 176 | Cc1nc2ccccn2c1-c1ccnc(NCc2ccc(C(=O)Nc3cc(F)ccc3N)cc2)n1 |  |  |
|  |  | 35 |  | 183 | 856 |  |  |  | 427 | Nc1ccccc1NC(=O)c1ccc(CNc2nccc(-c3cnc4ncccn34)n2)cc1 |  |  |

From ChEMBL document CHEMBL2311294, “Design, synthesis and bioevalution of novel benzamides derivatives as HDAC inhibitors” (Bioorg Med Chem Lett, 2013)
